The values that follow come from patent US4073885A (The United States of America as represented by the …, priority 1976, dated 1978).

Series [1] deals with opiate receptor. Kind of series: Brain enzymatic inactivation as assessed by opiate receptor binding inhibition. Here is the method: Male rats weighing 180-220 g (Sprangue-Dawley) were decapitated and each brain with the cerebellum removed was homogenized in 150 ml of ice-cold standard buffer (0.05 M Tris-HCl, ph 7.4 at 37°). After centrifugation at 4° at 12,000 × g, the membranes were reconstituted in standard buffer. After recentrifugation, each brain was suspended in 10 ml of the standard buffer.
Aliquots of the freshly prepared membrane preparation (100 μl) were incubated for 1 hr at 0° with 100 mM NaCl in a final volume of 0.5 ml with ^3 H!naloxone (Amersham-Searle, 34 Ci/mmol) in a concentration of 1.3 nM (20,000 cpm). After rapid filtration and washing with two 7-ml portions of ice-cold standard buffer, membrane-laden filters were transferred and counted at 40-45% efficiency at least 6 hours after shaking with detergent scintillation fluor (Aquasol, New England Nuclear).
The ability of the blood inhibitory factor eluted from the thin-layer plate to be degraded by enzymes present in brain was examined by incubating the blood substance with membranes or supernatant fluid from rat brain, terminating the enzyme action by boiling, and subsequently adding the product to the opiate receptor assay (see Table 1).
Rat brains were homogenized in 100 volumes (wt/vol) of standard buffer an
the particulate fraction and supernatant fluid were obtained by
centrifugation for 10 min. at 40,000 × g. After incubation under th
specified conditions in a total volume of 1 ml with met-enkephalin or
the supernatant fluid were assessed for inhibition in the standard opiate

The subject of series [2] is opiate receptor. Kind of series: Opiate receptor assay ([3H]naloxone binding, rapid filtration, rat brain membranes). As to conditions: 100 nM.
For series [3] the following is noted: Chang et al., cited from earlier work.
The test system of the next series is rat. In words: Assessment of analgesia: rat tail-flick test after micro-injection into periaqueductal gray matter. It is filed as in vivo. On the procedure: Eight rats were stereotaxically implanted with chronic indwelling cannulae guides constructed from 23 gauge TW stainless steel tubing. […] Testing was initiated approximately 1 week following surgery. The antinociceptive actions of morphine and anodynin were assessed using a modification of the D'Armour and Smith paradigm in which the latency for a rat to remove its tail from under a radiant heat source is measured in seconds. Baseline "tail-flick" latencies were always determined approximately 30 minutes prior to a drug or control injection by four trials separated by 10 sec.
The solutions were injected into the central gray matter with 30 guage injectors which extended 2 mm past the tip of the guide cannula. The injection rate was 15 μl/min. Testing for antinociception was initiated immediately after an injection. Animals were tested at 1-min. intervals for 5 min. and then at 10, 15, 30, and 60 min. At the end of the study, all animals were sacrificed and their brains were prepared following standard histological procedures to localize cannulae placements.
For orientation: Hot-plate and tail-flick tests time the reaction to a heat stimulus.

As for `CSCC[C@H](NC(=O)[C@H](Cc1ccccc1)NC(=O)CNC(=O)CNC(=O)[C@@H](N)Cc1ccc(O)cc1)C(=O)O` [Net-Enkephalin, H-Tyr-Gly-Gly-Phe-Met-OH], the “% Inhibition Stereospecific Binding” value with opiate receptor [1] (pre-incubation: Buffer, 1 hr, 37°) came to 65%; in the series on opiate receptor [1] (pre-incubation: rat brain particulate fraction, 0.25 hr, 37°), 39%; in the series with opiate receptor [1] (pre-incubation: rat brain particulate fraction, 1 hr, 0°), 65%; in the series on opiate receptor [1] (pre-incubation: rat brain particulate fraction, 1 hr, 37°), 2%; in the series with opiate receptor [1] (pre-incubation: rat brain supernatant fluid, 1 hr, 37°), 1%.

As to `C=CCN1CC[C@@]23CCCC[C@@H]2[C@@H]1Cc1ccc(O)cc13` [dextrallorphan], in the series with opiate receptor [2], the “effect on 3H-naloxone binding (control incubation)” value is “did not significantly reduce binding”.

Regarding `CC(C)C[C@H](NC(=O)[C@H](Cc1ccccc1)NC(=O)CNC(=O)CNC(=O)[C@@H](N)Cc1ccc(O)cc1)C(=O)O` [enkephalin], in the series on opiate receptor [1] (incubation with membranes or supernatant fluid from rat brain), the “Loss of opiate receptor inhibitory activity by brain enzymes” value is “completely and rapidly reversed”. In addition, in series [3], the “destruction in the brain” value was “rapidly destroyed” and the “time after micro-injection at which analgesia disappears completely” value was 1 to 2 min. Moreover, the “dose required to elicit analgesia relative to morphine” value in series [3] (micro-injection) was “at least 40 times”.

Turning to `CN1CC[C@]23c4c5ccc(O)c4O[C@H]2[C@@H](O)C=C[C@H]3[C@H]1C5` [morphine], the “antinociceptive action after pretreatment with naloxone” value in the series on rat (20 mg/kg naloxone intraperitoneally, 15 min prior) is given as “blocked”. Also, in the series on rat (central gray micro-injection in rats), the “behavioral effect (immobility)” value is listed as “stuperous immobility”.
